# Test results from PubChem BioAssay AID1259407 (Chemical Carcinogenesis Research Information System (CCRIS), 2018).
# Active and inactive are the calls of the source. How the calls were made is not given here.
# System: CCRIS mutagenicity, Ames/micronucleus/aberration tests
# Assay: CCRIS mutagenicity studies
# [1] = Test System: AMES SALMONELLA TYPHIMURIUM, Strain/Indicator: TA98, Metabolic Activation: NONE, Method: PREINCUBATION
# [2] = Test System: AMES SALMONELLA TYPHIMURIUM, Strain/Indicator: TA98, Metabolic Activation: NONE, Method: STANDARD PLATE
# [3] = Test System: AMES SALMONELLA TYPHIMURIUM, Strain/Indicator: TA100, Metabolic Activation: NONE, Method: PREINCUBATION
# [4] = Test System: AMES SALMONELLA TYPHIMURIUM, Strain/Indicator: TA100, Metabolic Activation: NONE, Method: STANDARD PLATE
compound,measurement,setting,value
CN(C)c1ccc2cc3ccc(N(C)C)cc3nc2c1,mutagenic call,"Test System: AMES SALMONELLA TYPHIMURIUM, Strain/Indicator: TA98, Metabolic Activation: RAT, LIVER, S-9, AROCLOR 1254, Method: STANDARD PLATE",active; positive
same,mutagenic call,"Test System: AMES SALMONELLA TYPHIMURIUM, Strain/Indicator: TA100, Metabolic Activation: RAT, LIVER, S-9, AROCLOR 1254, Method: STANDARD PLATE",active; positive
same,mutagenic call,"Test System: AMES SALMONELLA TYPHIMURIUM, Strain/Indicator: TA1537, Metabolic Activation: RAT, LIVER, S-9, AROCLOR 1254, Method: STANDARD PLATE",active; positive
same,mutagenic call,"Test System: CHINESE HAMSTER OVARY, Strain/Indicator: CHO-K1-BH4 (HGPRT)/6-THIOGUANINE, Metabolic Activation: S-9, Method: SUSPENSION/PLATE",active; positive
same,mutagenic call,"Test System: E. COLI, Strain/Indicator: WP2, Metabolic Activation: NONE, Method: PREINCUBATION",inactive; negative
same,mutagenic call,"Test System: MOUSE LYMPHOMA, Strain/Indicator: L5178Y (TK+/TK-), Metabolic Activation: S-9, Method: SUSPENSION/PLATE",active; positive
CC(=O)N[C@@H](CC(=O)O)C(=O)O,mutagenic call,"End Point: In vivo micronucleus, Test System: Bone marrow erythrocytes, Species: Mouse, Strain/Sex: Crl:CD1 (ICR)/Male and female, Route: Oral",inactive; negative
same,mutagenic call,"Test System: Ames Salmonella typhimurium, Strain/Indicator: TA98, Metabolic Activation: None, Method: Standard plate",inactive; negative
same,mutagenic call,"Test System: Ames Salmonella typhimurium, Strain/Indicator: TA98, Metabolic Activation: Rat, Liver, S-9, Aroclor 1254 (10%), Method: Standard plate",inactive; negative
same,mutagenic call,"Test System: Ames Salmonella typhimurium, Strain/Indicator: TA100, Metabolic Activation: None, Method: Standard plate",inactive; negative
same,mutagenic call,"Test System: Ames Salmonella typhimurium, Strain/Indicator: TA100, Metabolic Activation: Rat, Liver, S-9, Aroclor 1254 (10%), Method: Standard plate",inactive; negative
same,mutagenic call,"Test System: Ames Salmonella typhimurium, Strain/Indicator: TA1535, Metabolic Activation: None, Method: Standard plate",inactive; negative
same,mutagenic call,"Test System: Ames Salmonella typhimurium, Strain/Indicator: TA1535, Metabolic Activation: Rat, Liver, S-9, Aroclor 1254 (10%), Method: Standard plate",inactive; negative
same,mutagenic call,"Test System: Ames Salmonella typhimurium, Strain/Indicator: TA1537, Metabolic Activation: None, Method: Standard plate",inactive; negative
same,mutagenic call,"Test System: Ames Salmonella typhimurium, Strain/Indicator: TA1537, Metabolic Activation: Rat, Liver, S-9, Aroclor 1254 (10%), Method: Standard plate",inactive; negative
same,mutagenic call,"Test System: E. coli, Strain/Indicator: WP2 uvrA, Metabolic Activation: None, Method: Standard plate",inactive; negative
same,mutagenic call,"Test System: E. coli, Strain/Indicator: WP2 uvrA, Metabolic Activation: Rat, Liver, S-9, Aroclor 1254 (10%), Method: Standard plate",inactive; negative
O=[N+]([O-])c1ccc(Cl)c(Cl)c1,mutagenic call,"End Point: IN VITRO CHROMOSOMAL ABERRATIONS, Test System: HUMAN PERIPHERAL LYMPHOCYTES, Metabolic Activation: NONE",inactive; negative
same,mutagenic call,"End Point: In vitro chromosomal aberrations, Test System: Chinese hamster lung (CHL/IU) cells, Metabolic Activation: Rat, Liver, S9, Phenobarbital and 5,6-benzoflavone",active; positive (structural changes). precipitation observed in culture medium at 0.16
same,mutagenic call,[1],inactive; negative
same,mutagenic call,[2],inactive; negative
same,mutagenic call,"Test System: AMES SALMONELLA TYPHIMURIUM, Strain/Indicator: TA98, Metabolic Activation: RAT LIVER S-9, AROCLOR 1254 (10%), Method: STANDARD PLATE",inactive; negative
same,mutagenic call,"Test System: AMES SALMONELLA TYPHIMURIUM, Strain/Indicator: TA98, Metabolic Activation: RAT, LIVER, S-9, KANECHLOR 500, Method: PREINCUBATION",inactive; negative
same,mutagenic call,[3],active; positive
same,mutagenic call,[4],inactive; negative
same,mutagenic call,"Test System: AMES SALMONELLA TYPHIMURIUM, Strain/Indicator: TA100, Metabolic Activation: RAT, LIVER, S-9, KANECHLOR 500, Method: PREINCUBATION",active; positive
same,mutagenic call,"Test System: Ames Salmonella typhimurium, Strain/Indicator: TA98, Metabolic Activation: None, Method: Preincubaton",inactive; negative
same,mutagenic call,"Test System: Ames Salmonella typhimurium, Strain/Indicator: TA98, Metabolic Activation: Rat, Liver, S9, Sodium phenobarbital and 5,6-benzoflavone (10%), Method: Preincubaton",inactive; negative
same,mutagenic call,"Test System: Ames Salmonella typhimurium, Strain/Indicator: TA100, Metabolic Activation: None, Method: Preincubaton",active; positive
same,mutagenic call,"Test System: Ames Salmonella typhimurium, Strain/Indicator: TA100, Metabolic Activation: Rat, Liver, S9, Sodium phenobarbital and 5,6-benzoflavone (10%), Method: Preincubaton",active; positive
same,mutagenic call,"Test System: Ames Salmonella typhimurium, Strain/Indicator: TA1535, Metabolic Activation: None, Method: Preincubaton",inactive; negative
same,mutagenic call,"Test System: Ames Salmonella typhimurium, Strain/Indicator: TA1535, Metabolic Activation: Rat, Liver, S9, Sodium phenobarbital and 5,6-benzoflavone (10%), Method: Preincubaton",inactive; negative
same,mutagenic call,"Test System: Ames Salmonella typhimurium, Strain/Indicator: TA1537, Metabolic Activation: None, Method: Preincubaton",inactive; negative
same,mutagenic call,"Test System: Ames Salmonella typhimurium, Strain/Indicator: TA1537, Metabolic Activation: Rat, Liver, S9, Sodium phenobarbital and 5,6-benzoflavone (10%), Method: Preincubaton",inactive; negative
same,mutagenic call,"Test System: E. coli, Strain/Indicator: WP2uvrA/pKM101, Metabolic Activation: None, Method: Preincubaton",inactive; negative
same,mutagenic call,"Test System: E. coli, Strain/Indicator: WP2uvrA/pKM101, Metabolic Activation: Rat, Liver, S9, Sodium phenobarbital and 5,6-benzoflavone (10%), Method: Preincubaton",inactive; negative
CCOC(=O)OC(=O)OCC,mutagenic call,[2],inactive; negative
same,mutagenic call,[4],inactive; negative
CCNc1cc(O)ccc1C,mutagenic call,"Test System: AMES SALMONELLA TYPHIMURIUM, Strain/Indicator: TA97, Metabolic Activation: HAMSTER, LIVER, S-9, AROCLOR 1254 (10%), Method: PREINCUBATION",inactive; negative
same,mutagenic call,"Test System: AMES SALMONELLA TYPHIMURIUM, Strain/Indicator: TA97, Metabolic Activation: NONE, Method: PREINCUBATION",inactive; negative
same,mutagenic call,"Test System: AMES SALMONELLA TYPHIMURIUM, Strain/Indicator: TA97, Metabolic Activation: RAT, LIVER, S-9, AROCLOR 1254 (10%), Method: PREINCUBATION",inactive; negative
same,mutagenic call,"Test System: AMES SALMONELLA TYPHIMURIUM, Strain/Indicator: TA98, Metabolic Activation: HAMSTER, LIVER, S-9, AROCLOR 1254 (10%), Method: PREINCUBATION",active; positive
same,mutagenic call,[1],inactive; negative
same,mutagenic call,"Test System: AMES SALMONELLA TYPHIMURIUM, Strain/Indicator: TA98, Metabolic Activation: RAT, LIVER, S-9, AROCLOR 1254 (10%), Method: PREINCUBATION",active; positive
same,mutagenic call,"Test System: AMES SALMONELLA TYPHIMURIUM, Strain/Indicator: TA100, Metabolic Activation: HAMSTER, LIVER, S-9, AROCLOR 1254 (10%), Method: PREINCUBATION",active; positive
same,mutagenic call,[3],inactive; negative
same,mutagenic call,"Test System: AMES SALMONELLA TYPHIMURIUM, Strain/Indicator: TA100, Metabolic Activation: RAT, LIVER, S-9, AROCLOR 1254 (10%), Method: PREINCUBATION",inactive; negative
same,mutagenic call,"Test System: AMES SALMONELLA TYPHIMURIUM, Strain/Indicator: TA1535, Metabolic Activation: HAMSTER, LIVER, S-9, AROCLOR 1254 (10%), Method: PREINCUBATION",inactive; negative
same,mutagenic call,"Test System: AMES SALMONELLA TYPHIMURIUM, Strain/Indicator: TA1535, Metabolic Activation: NONE, Method: PREINCUBATION",inactive; negative
same,mutagenic call,"Test System: AMES SALMONELLA TYPHIMURIUM, Strain/Indicator: TA1535, Metabolic Activation: RAT, LIVER, S-9, AROCLOR 1254 (10%), Method: PREINCUBATION",inactive; negative
